Measurements published in PubChem BioAssay AID2060627 (Molecular Pharmacology Branch, DTP, NCI, 2025).
Values joined by “and” are separate entries in the source; they are usually repeats but may differ in a detail not shown here. Equal values may be shown once.

Tested on: 156681-154-R-J1-PDC complex spheroid viability
Assay: Anticancer human tumor 156681-154-R-J1-PDC patient-derived melanoma cell line growth inhibition [CLK]
Details: for viability, T/C: stronger effect = lower value
Procedure, shortened: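 Multi-cell-type spheroids combined patient-derived tumor cells with HUVEC endothelial cells and human mesenchymal stem cells. Paired agents were dosed in half-log steps down from about clinical Cmax, or from 10 microM where Cmax was unknown.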

[1] = curve of first compound, second compound 0.0316 µM
[2] = curve of first compound, second compound 0.1 µM
[3] = curve of first compound, second compound 0.316 µM
[4] = curve of first compound, second compound 1 µM
[5] = curve of first compound, second compound 3.16 µM
[6] = curve of first compound, second compound 10 µM
[7] = second compound 0.0316 µM, first compound 0.0316 µM
[8] = second compound 0.0316 µM, first compound 0.1 µM
[9] = second compound 0.0316 µM, first compound 0.316 µM
[10] = second compound 0.0316 µM, first compound 1 µM
[11] = second compound 0.0316 µM, first compound 3.16 µM
[12] = second compound 0.0316 µM, first compound 10 µM
[13] = second compound 0.1 µM, first compound 0.0316 µM
[14] = second compound 0.1 µM, first compound 0.1 µM
[15] = second compound 0.1 µM, first compound 0.316 µM
[16] = second compound 0.1 µM, first compound 1 µM
[17] = second compound 0.1 µM, first compound 3.16 µM
[18] = second compound 0.1 µM, first compound 10 µM
[19] = second compound 0.316 µM, first compound 0.0316 µM
[20] = second compound 0.316 µM, first compound 0.1 µM
[21] = second compound 0.316 µM, first compound 0.316 µM
[22] = second compound 0.316 µM, first compound 1 µM
[23] = second compound 0.316 µM, first compound 3.16 µM
[24] = second compound 0.316 µM, first compound 10 µM
[25] = second compound 1 µM, first compound 0.0316 µM
[26] = second compound 1 µM, first compound 0.1 µM
[27] = second compound 1 µM, first compound 0.316 µM
[28] = second compound 1 µM, first compound 1 µM
[29] = second compound 1 µM, first compound 3.16 µM
[30] = second compound 1 µM, first compound 10 µM
[31] = second compound 3.16 µM, first compound 0.0316 µM
[32] = second compound 3.16 µM, first compound 0.1 µM
[33] = second compound 3.16 µM, first compound 0.316 µM
[34] = second compound 3.16 µM, first compound 1 µM
[35] = second compound 3.16 µM, first compound 3.16 µM
[36] = second compound 3.16 µM, first compound 10 µM
[37] = second compound 10 µM, first compound 0.0316 µM
[38] = second compound 10 µM, first compound 0.1 µM
[39] = second compound 10 µM, first compound 0.316 µM
[40] = second compound 10 µM, first compound 1 µM
[41] = second compound 10 µM, first compound 3.16 µM
[42] = second compound 10 µM, first compound 10 µM
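Also: spheroids exposed to the agents for seven days.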
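For viability, T/C in this document: 100% = DMSO vehicle control viability.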

COc1ccc([C@@H](O)c2cc(-c3ncnc4cc(N5CCOCC5)ccc34)c(F)cc2Cl)nn1 + CN1CCN(c2cc(C(=O)Nc3cc4cc(-c5cnn(C)c5)ccc4cn3)ccn2)CC1
IC50 [1]: 2400 nM | IC50 [2]: 1450 nM | IC50 [3]: < 31.6 nM | IC50 [4]: < 31.6 nM | IC50 [5]: < 31.6 nM | IC50 [6]: < 31.6 nM | viability, T/C [7]: 109% | viability, T/C [8]: 88.3% | viability, T/C [9]: 91.3% | viability, T/C [10]: 63.6% | viability, T/C [11]: 45.3% | viability, T/C [12]: 19.2% | viability, T/C [13]: 97.5% | viability, T/C [14]: 84% | viability, T/C [15]: 73.5% | viability, T/C [16]: 58.2% | viability, T/C [17]: 35% | viability, T/C [18]: 16.8% | viability, T/C [19]: 15.7% | viability, T/C [20]: 16.9% | viability, T/C [21]: 14.8% | viability, T/C [22]: 13% | viability, T/C [23]: 8.38% | viability, T/C [24]: 2.77% | viability, T/C [25]: 0.13% | viability, T/C [26]: 2% | viability, T/C [27]: 1.91% | viability, T/C [28]: 0.33% | viability, T/C [29]: 1.72% | viability, T/C [30]: 2.7% | viability, T/C [31]: 0.06% | viability, T/C [32]: 1.44% | viability, T/C [33]: 0.99% | viability, T/C [34]: 0.08% | viability, T/C [35]: 3.19% | viability, T/C [36]: 0.56% | viability, T/C [37]: 0.06% | viability, T/C [38]: 2.47% | viability, T/C [39]: 1.95% | viability, T/C [40]: 0.88% | viability, T/C [41]: 2.45% | viability, T/C [42]: 0.51%

NC(=O)C(=Cn1cnc(-c2cc(C(F)(F)F)cc(C(F)(F)F)c2)n1)c1cncnc1
viability, T/C (compound 0.00949 µM): 79.6% and 73.7% | viability, T/C (compound 0.03 µM): 67.2% and 49.7% | viability, T/C (compound 0.0949 µM): 46.6% and 36.5% | viability, T/C (compound 0.3 µM): 14.8% and 11.8% | viability, T/C (compound 0.949 µM): 6.97% and 7.35% | viability, T/C (compound 3 µM): 4.72% and 4.92% | IC50 (curve of compound): 73.9 nM and 34.7 nM

Nc1ccccc1NC(=O)c1ccc(CNC(=O)OCc2cccnc2)cc1
viability, T/C (compound 0.0316 µM): 105% and 91.2% | viability, T/C (compound 0.1 µM): 98.8% and 108% | viability, T/C (compound 0.316 µM): 71.4% and 47.5% | viability, T/C (compound 1 µM): 40.7% and 27% | viability, T/C (compound 3.16 µM): 6.65% and 4.95% | viability, T/C (compound 10 µM): 0.46% and 0.13% | IC50 (curve of compound): 674 nM and 305 nM

COC1C=CCC(C)C(C)S(=O)(=O)NC(=O)c2ccc3c(c2)N(CC2CCC21)CC1(CCCc2cc(Cl)ccc21)CO3 (stereo not given) + CNC(=O)c1ccc(Nc2nc(OC3CCCC3)c3c(-c4ccc5nc(C)oc5c4)c[nH]c3n2)c(OC)c1
IC50 [1]: 1070 nM | IC50 [2]: 327 nM | IC50 [3]: 88.5 nM | IC50 [4]: < 31.6 nM | IC50 [5]: < 31.6 nM | IC50 [6]: < 31.6 nM | viability, T/C [7]: 96.3% | viability, T/C [8]: 93.1% | viability, T/C [9]: 84.3% | viability, T/C [10]: 54% | viability, T/C [11]: 9.3% | viability, T/C [12]: 1.52% | viability, T/C [13]: 60.2% | viability, T/C [14]: 57% | viability, T/C [15]: 48.8% | viability, T/C [16]: 36.5% | viability, T/C [17]: 12.5% | viability, T/C [18]: 1.5% | viability, T/C [19]: 55.6% | viability, T/C [20]: 49.5% | viability, T/C [21]: 35.6% | viability, T/C [22]: 20.6% | viability, T/C [23]: 5.31% | viability, T/C [24]: 2.16% | viability, T/C [25]: 43.4% | viability, T/C [26]: 42.6% | viability, T/C [27]: 24.4% | viability, T/C [28]: 19.5% | viability, T/C [29]: 8.99% | viability, T/C [30]: 2.33% | viability, T/C [31]: 35.7% | viability, T/C [32]: 39% | viability, T/C [33]: 15.3% | viability, T/C [34]: 15.1% | viability, T/C [35]: 7.52% | viability, T/C [36]: 3.33% | viability, T/C [37]: 30.4% | viability, T/C [38]: 32.5% | viability, T/C [39]: 16.2% | viability, T/C [40]: 13.8% | viability, T/C [41]: 10.4% | viability, T/C [42]: 5.15%

CCCS(=O)(=O)Nc1ccc(F)c(C(=O)c2c[nH]c3ncc(-c4ccc(Cl)cc4)cc23)c1F + CNC(=O)c1ccc(Nc2nc(OC3CCCC3)c3c(-c4ccc5nc(C)oc5c4)c[nH]c3n2)c(OC)c1
IC50 [1]: 4960 nM | IC50 [2]: 3870 nM | IC50 [3]: 2090 nM | IC50 [4]: < 31.6 nM | IC50 [5]: < 31.6 nM | IC50 [6]: < 31.6 nM | viability, T/C [7]: 69% | viability, T/C [8]: 81.1% | viability, T/C [9]: 70.7% | viability, T/C [10]: 113% | viability, T/C [11]: 76.8% | viability, T/C [12]: 8.32% | viability, T/C [13]: 54.8% | viability, T/C [14]: 57.4% | viability, T/C [15]: 72.1% | viability, T/C [16]: 63% | viability, T/C [17]: 58.2% | viability, T/C [18]: 10.1% | viability, T/C [19]: 48% | viability, T/C [20]: 58.8% | viability, T/C [21]: 62.3% | viability, T/C [22]: 58.7% | viability, T/C [23]: 46.1% | viability, T/C [24]: 14.4% | viability, T/C [25]: 45.8% | viability, T/C [26]: 48.7% | viability, T/C [27]: 42.8% | viability, T/C [28]: 40.3% | viability, T/C [29]: 39.1% | viability, T/C [30]: 12.5% | viability, T/C [31]: 41.1% | viability, T/C [32]: 29.7% | viability, T/C [33]: 33.5% | viability, T/C [34]: 34% | viability, T/C [35]: 36.2% | viability, T/C [36]: 13.8% | viability, T/C [37]: 34.9% | viability, T/C [38]: 34.3% | viability, T/C [39]: 22.1% | viability, T/C [40]: 32.5% | viability, T/C [41]: 23.4% | viability, T/C [42]: 12.2%
